The results in this text go back to publication PMC10338423, “Synthesis and preclinical evaluation of a novel fluorine-18 labeled small-molecule PET radiotracer for imaging of CXCR3 receptor in mouse models of atherosclerosis” (EJNMMI Research, 2023).

Series [1] in a line: Biodistribution study in normal C57BL/6 mice. The series is classed as in vivo, mouse. The method, then: Biodistribution studies were also performed to discover the drug distribution within normal mice. 17-week-old male and female C57BL/6 mice were purchased to match the age of the imaging study group. [^18F]1 was intravenously injected into these mice (N = 4/time point), then they were sacrificed at 10, 30, and 60 min after the injection. Their major organs, including the brain, blood, lung, liver, stomach, heart, spleen, kidney, muscle, bone, large intestine, small intestine, aorta, liquinal lymph nodes (LN), interscapular BAT, and tail, were harvested. Their radioactivity was counted by an automated γ-counter. The biodistribution was calculated as an average of the percent injected dose per gram tissue (%ID/g tissue) where the counted radioactivity of each organ was divided by the weight of each tissue and the total radioactivity that circulated in the mouse body at the time of the euthanasia.
Seventeen-week-old male and female C57BL/6 mice were purchased to match the age of PET imaging mice. They were anesthetized in the anesthesia chamber using 3% isoflurane in oxygen and received 0.74–1.11 MBq of [^18F]1 in 100 μL of 5–10% EtOH in saline containing 0.5% sodium ascorbate. The injected mice were returned to their cages and free until the time of the study. At 10, 30, and 60 min after the [^18F]1 administration, each mouse (N = 4/time point) was anesthetized again and euthanized by cervical dislocation followed by cardiac puncture to take a blood sample. Then, the following organs were harvested: the brain, blood, heart, liver, lung, stomach, large intestine, small intestine, spleen, kidney, bone, muscle, liquinal LN, interscapular BAT, and tail. The radioactivity of each organ was counted by a PerkinElmer Wallac 1480 Wizard^3 Gamma Counter (Waltham, MA). The whole radioactivity that went into the circulation of the mouse was calculated by subtracting the residual radioactivity in the tail from the injected radioactivity. Therefore, the biodistribution was calculated as an average of the percent injected dose per gram of tissue (%ID/g tissue) by dividing the measured radioactivity by the whole radioactivity that actually went into the body and the weight of the tissue.

In the next series the target is T1, CXCR3 (Mus musculus, UniProt O88410).
T1 construct: tissue Jackson Laboratory (mice); host or cells: In vivo: atherosclerotic abdominal aorta and brown adipose tissue of ApoE KO mice (high-fat diet) and C57BL/6 control mice (normal diet)
T1 sequence (O88410 1-367): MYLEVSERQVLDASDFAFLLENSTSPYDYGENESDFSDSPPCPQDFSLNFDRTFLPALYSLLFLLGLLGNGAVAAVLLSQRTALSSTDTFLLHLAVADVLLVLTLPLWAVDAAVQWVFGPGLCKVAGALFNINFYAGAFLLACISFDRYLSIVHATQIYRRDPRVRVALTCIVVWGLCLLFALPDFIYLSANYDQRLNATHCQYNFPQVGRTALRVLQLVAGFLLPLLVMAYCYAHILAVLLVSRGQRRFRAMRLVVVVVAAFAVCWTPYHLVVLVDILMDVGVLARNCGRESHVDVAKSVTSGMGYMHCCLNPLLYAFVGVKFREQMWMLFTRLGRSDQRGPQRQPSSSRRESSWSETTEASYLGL
As to the kind of experiment: PET/CT imaging, baseline and self-blocking, in C57BL/6 control mice on normal diet. It counts as in vivo. An excerpt: [^18F]1 was further evaluated for reliability as a CXCR3 radiotracer using mouse models of atherosclerosis. For this purpose, we tested [^18F]1 in ApoE KO mice, a widely used murine model of atherosclerosis. Six-week-old ApoE KO male mice (N = 6) and C57BL/6 male control mice (i.e., a background strain of ApoE KO mouse, ApoE-wildtype control; N = 6) were purchased from Jackson Laboratory (Bar Harbor, ME). The ApoE KO mice were placed on a high-fat diet over 12 weeks to accelerate atherosclerosis development. […] At 12 weeks, PET/computed tomography (CT) studies were performed using both mice groups. Dynamic PET scans (90 min acquisition) were performed beginning 5 min after the intravenous injection of [^18F]1 followed by a ~ 10 min CT scan. Usually, one week after the baseline PET/CT scan, the corresponding blocking PET/CT scan was performed. This time, 1·HCl salt (5 mg/kg) was used as a blocking agent and intravenously injected 5 min before the radiotracer injection.
All animal studies were performed at the VA Biomolecular Imaging Center (VA BIC) at the Harry S. Truman Memorial Veterans’ Hospital (Columbia, MO). Six-week-old ApoE KO male mice and C57BL/6 control male mice were purchased from Jackson Laboratory. All mice were housed in the controlled vivarium during the studies. All ApoE KO mice were fed with high-fat chow that contained 42% fat, 34% of that contained unsaturated fat (TD.88137, Envigo, Indianapolis, IN), one week after the arrival and continued the feeding until the end of the study. The first PET/CT scans were performed 12 weeks after initiating the high-fat diet, and the second PET/CT scans that used 1·HCl as a blocking agent were performed at least one week after the first PET/CT scans. Meanwhile, C57BL/6 control mice were fed with normal chow over the same schedule to match with ApoE KO mice.
Maximum intensity micro-PET images were obtained on a Siemens INVEON small-animal PET/CT scanner (Siemens Medical Solutions USA, Inc., Malvern, PA). […] The micro-PET data was analyzed using Siemens Inveon Research Workplace, General Analysis software. […]

Setting [2] is: 10 min p.i., i.v., C57BL/6 mice.
[3] abbreviates: 1·HCl 5 mg/kg i.v. 5 min before tracer.

SMILES strings stand for the structures.

Consider `CC[C@H]1CN(c2ncc(-c3nnco3)cc2Cl)CCN1C1CCN(Cc2ccc(Cl)cc2[18F])CC1` [[^18F]1], for which, in series [1] (setting [2]), the “uptake in BAT” value is 15 % ID/g, the uptake in aorta is listed as 13 % ID/g, the uptake in heart worked out at 12 % ID/g and the uptake in kidney was 22 % ID/g. In series [1] (setting [2]), this molecule yielded an uptake in liver of 12 % ID/g and an uptake in lung of 27 % ID/g. Also, the “uptake remaining relative to 10 min p.i. (lung, kidney, BAT, aorta, heart)” value in series [1] (30 min p.i.) is ~ 60%. The molecule also displayed an uptake in liver in series [1] (30 min p.i., i.v., C57BL/6 mice) of 22 % ID/g. For the same molecule, the “uptake remaining relative to 10 min p.i. (lung, kidney, BAT, aorta, heart)” value in series [1] (60 min p.i.) is given as ~ 40%. Also, at CXCR3 (setting [3]), the “blocking effect in BAT (from AUC of TACs)” value turned out to be 45.9% and the “blocking effect in abdominal aorta (from AUC of TACs)” value was determined as 4.7%. Also, on CXCR3 (blocking study with 1·HCl 5 mg/kg i.v., stated for both groups), the “standard uptake value (SUV), BAT region” value was 1.2–1.5.
